Where two headings read alike, the source gives them in different places. A value given as a limit tells only on which side of the number the result lay.

As usually defined, the IC50 is the midpoint of a concentration-inhibition curve.

For experiment [1], the system named is HIV pseudotyped virus (NL4-3 provirus), WT. The experiment in a line: PSV assay (pseudotyped virus assay), WT. The note with it: U373 cells expressing human CD4 and CXCR4 or CCR5, luciferase signal after 3 days of culture.
Description: A pseudotyped virus assay (PSV) was used to assess the potency of the HIV inhibitor. Replication defective virus was produced by co-transfection of a plasmid containing an NL4-3 provirus [containing a mutation in the envelope open reading frame (ORF) and a luciferase reporter gene replacing the nef ORF] and a CMV-promoter expression plasmid containing an ORF for various HIV gp160 envelope clones. The harvested virus was stored at −80 C in small aliquots and the titer of the virus measured to produce a robust signal for antiviral assays.
The PSV assay was performed by using U373 cells stably transformed to express human CD4, the primary receptor for HIV entry and either human CXCR4 or human CCR5 which are the co-receptors required for HIV entry as target cells for infection. […] This dose-range was applied to U373 cells and the pre-made pseudotyped virus added. The amount of luciferase signal produced after 3 days of culture was used to reflect the level of pseudotyped virus infection. An IC50, or the concentration of inhibitor required to reduce PSV infection by 50% from the infection containing no inhibitor was calculated. […] IC50 values were determined from a 10 point dose response curve using 3-4-fold serial dilution for each compound, which spans a concentration range >1000 fold.
The subject of experiment [2] is HIV pseudotyped virus (NL4-3 provirus), M184V. In kind it is cell-based. Particulars: PSV assay; U373 cells expressing human CD4 and CXCR4 or CCR5; luciferase signal after 3 days of culture.
Where [3] appears, read: Human immunodeficiency virus 1, NL43, in Homo sapiens, 72 h, read-out: WT IC50 (μM), PSV assay.

Consider `C#C[C@]1(CO)O[C@@H](n2cnc3c(N)nc(F)nc32)C[C@@H]1OC(=O)OC(COC(C)=O)COC(C)=O` [Example 28, 2-(((((2R,3S,5R)-5-(6-amino-2-fluoro-9H-purin-9-yl)-2-ethynyl-2-(hydroxymethyl)tetrahydrofuran-3-yl)oxy)carbonyl)oxy)propane-1,3-diyl diacetate], for which the figures for the IC50 in experiment [1] (setting [3]) and in experiment [2] were 0.0106 µM and 39.2 nM, respectively.

Turning to `C#C[C@]1(CO)O[C@@H](n2cnc3c(N)nc(F)nc32)C[C@@H]1OC(=O)NCCCCCCCCCCCC` [Example 15, (2R,3S,5R)-5-(6-amino-2-fluoro-9H-purin-9-yl)-2-ethynyl-2-(hydroxymethyl)tetrahydrofuran-3-yl dodecylcarbamate], the 50% inhibitory concentration (IC50) is more than 15 µM in experiment [1] (setting [3]) and more than 15000 nM in experiment [2].

With `C#C[C@]1(COC(=O)OC2COC(=O)CCCCCCCCCCCC(=O)OC2)O[C@@H](n2cnc3c(N)nc(F)nc32)C[C@@H]1O` [Example 10, ((2R,3S,5R)-5-(6-amino-2-fluoro-9H-purin-9-yl)-2-ethynyl-3-hydroxytetrahydrofuran-2-yl)methyl (6,18-dioxo-1,5-dioxacyclooctadecan-3-yl) carbonate], the results for the IC50 in experiment [1] (setting [3]) and in experiment [2] were 0.0097 µM and 31.3 nM, respectively.

For the compound `C#C[C@]1(CO)O[C@@H](n2cnc3c(N)nc(F)nc32)C[C@@H]1OC(=O)NCC(=O)OCCCCC` [Example 27, pentyl ((((2R,3S,5R)-5-(6-amino-2-fluoro-9H-purin-9-yl)-2-ethynyl-2-(hydroxymethyl)tetrahydrofuran-3-yl)oxy)carbonyl)glycinate], the IC50 in experiment [1] (setting [3]) was more than 25 µM; in experiment [2] it was more than 25000 nM.

Consider `C#C[C@]1(CO)O[C@@H](n2cnc3c(N)nc(F)nc32)C[C@@H]1OC(=O)NCC(=O)OC(C)(C)C` [Example 26, tert-butyl ((((2R,3S,5R)-5-(6-amino-2-fluoro-9H-purin-9-yl)-2-ethynyl-2-(hydroxymethyl)tetrahydrofuran-3-yl)oxy)carbonyl)glycinate], for which the IC50 worked out at 16.1 µM in experiment [1] (setting [3]) and 17300 nM in experiment [2].

For the compound `C#C[C@]1(CO)O[C@@H](n2cnc3c(N)nc(F)nc32)C[C@@H]1OC(=O)NC` [Example 18, (2R,3S,5R)-5-(6-amino-2-fluoro-9H-purin-9-yl)-2-ethynyl-2-(hydroxymethyl)tetrahydrofuran-3-yl methylcarbamate], the IC50 in experiment [1] (setting [3]) was 2.03 µM; in experiment [2], 9110 nM.

For the compound `C#C[C@]1(CO)O[C@@H](n2cnc3c(NC(=O)OC(COCCCCCCCCC)COC(=O)CCCCCCCC)nc(F)nc32)C[C@@H]1O` (single isomer, unassigned) [Example 36], the IC50 stood at 0.0085 µM in experiment [1] (read-out: WT IC50, PSV assay) and 22.9 nM in experiment [2].

Take `C#C[C@]1(CO)O[C@@H](n2cnc3c(N)nc(F)nc32)C[C@@H]1OC(=O)N(CC)CC` [Example 21, (2R,3S,5R)-5-(6-amino-2-fluoro-9H-purin-9-yl)-2-ethynyl-2-(hydroxymethyl)tetrahydrofuran-3-yl diethylcarbamate]: the IC50 in experiment [1] (setting [3]) was 14.7 µM; in experiment [2], more than 25000 nM.

As to `C#C[C@]1(CO)O[C@@H](n2cnc3c(NC(=O)OC(COCCCCCCCCC)COC(=O)CCCCCCCC)nc(F)nc32)C[C@@H]1O` (single isomer, unassigned) [Example 35], the IC50 in experiment [1] (setting [3]) amounted to 0.0112 µM; in experiment [2], 33.1 nM.

Regarding `C#C[C@]1(COC(=O)N(CC)CC)O[C@@H](n2cnc3c(N)nc(F)nc32)C[C@@H]1O` [Example 7, ((2R,3S,5R)-5-(6-amino-2-fluoro-9H-purin-9-yl)-2-ethynyl-3-hydroxytetrahydrofuran-2-yl)methyl diethylcarbamate], the IC50 was 1.28 µM in experiment [1] (setting [3]) and 2410 nM in experiment [2].

For `C#C[C@]1(CO)O[C@@H](n2cnc3c(N)nc(F)nc32)C[C@@H]1OC(=O)OCc1ccc(OC(=O)CCCCCCCCCCCCC)cc1` [Example 12, 4-((((((2R,3S,5R)-5-(6-amino-2-fluoro-9H-purin-9-yl)-2-ethynyl-2-(hydroxymethyl)tetrahydrofuran-3-yl)oxy)carbonyl)oxy)methyl)phenyl tetradecanoate], the figures for the IC50 in experiment [1] (setting [3]) and in experiment [2] were 0.017 µM and 66.3 nM, respectively.

Take `C#C[C@]1(CO)O[C@@H](n2cnc3c(NC(=O)OC4COC(=O)CCCCCCCCCCCC(=O)OC4)nc(F)nc32)C[C@@H]1O` [Example 34, 6,18-dioxo-1,5-dioxacyclooctadecan-3-yl (9-((2R,4S,5R)-5-ethynyl-4-hydroxy-5-(hydroxymethyl)tetrahydrofuran-2-yl)-2-fluoro-9H-purin-6-yl)carbamate]: the IC50 in experiment [1] (setting [3]) was 0.0132 µM; in experiment [2] it was 67.8 nM.

`C#C[C@]1(COC(=O)NCCCCCCCCCCCCCCCCCC)O[C@@H](n2cnc3c(N)nc(F)nc32)C[C@@H]1O` [Example 1, ((2R,3S,5R)-5-(6-amino-2-fluoro-9H-purin-9-yl)-2-ethynyl-3-hydroxytetrahydrofuran-2-yl)methyl octadecylcarbamate]: the results for the IC50 in experiment [1] (setting [3]) and in experiment [2] were more than 25 µM and more than 25000 nM, respectively.

Regarding `C#C[C@]1(COC(=O)NCCCCCCCCCCCC)O[C@@H](n2cnc3c(N)nc(F)nc32)C[C@@H]1O` [Example 3, ((2R,3S,5R)-5-(6-amino-2-fluoro-9H-purin-9-yl)-2-ethynyl-3-hydroxytetrahydrofuran-2-yl)methyl dodecylcarbamate], the 50% inhibitory concentration (IC50) in experiment [1] (setting [3]) stood at 2.01 µM; in experiment [2] it was 8170 nM.

As to `C#C[C@]1(CO)O[C@@H](n2cnc3c(N)nc(F)nc32)C[C@@H]1OC(=O)NCC(=O)OCC` [Example 25, ethyl ((((2R,3S,5R)-5-(6-amino-2-fluoro-9H-purin-9-yl)-2-ethynyl-2-(hydroxymethyl)tetrahydrofuran-3-yl)oxy)carbonyl)glycinate], the IC50 in experiment [1] (setting [3]) is 1.18 µM; in experiment [2], 1260 nM.

As for `C#C[C@]1(COC(=O)OCc2ccc(OC(=O)CCCCCCCCCCCCCCCCCCC)cc2)O[C@@H](n2cnc3c(N)nc(F)nc32)C[C@@H]1O` [Example 14, 4-((((((2R,3S,5R)-5-(6-amino-2-fluoro-9H-purin-9-yl)-2-ethynyl-3-hydroxytetrahydrofuran-2-yl)methoxy)carbonyl)oxy)methyl)phenyl icosanoate], the figures for the half-inhibitory concentration (IC50) in experiment [1] (setting [3]) and in experiment [2] were 1.55 µM and 2410 nM, respectively.

With `C#C[C@]1(COC(=O)NCCCCCCCC)O[C@@H](n2cnc3c(N)nc(F)nc32)C[C@@H]1O` [Example 2, ((2R,3S,5R)-5-(6-amino-2-fluoro-9H-purin-9-yl)-2-ethynyl-3-hydroxytetrahydrofuran-2-yl)methyl octylcarbamate], the IC50 in experiment [1] (setting [3]) was more than 25 µM; in experiment [2], more than 25000 nM.

For the compound `C#C[C@]1(CO)O[C@@H](n2cnc3c(N)nc(F)nc32)C[C@@H]1OC(=O)OC(COC(=O)CCCCCCCC)COC(=O)CCCCCCCC` [Example 30, 2-(((((2R,3S,5R)-5-(6-amino-2-fluoro-9H-purin-9-yl)-2-ethynyl-2-(hydroxymethyl)tetrahydrofuran-3-yl)oxy)carbonyl)oxy)propane-1,3-diyl dinonanoate], the half-inhibitory concentration (IC50) was determined as 0.0077 µM in experiment [1] (setting [3]) and 29.3 nM in experiment [2].

With `C#C[C@]1(CO)O[C@@H](n2cnc3c(N)nc(F)nc32)C[C@@H]1OC(=O)NC1CC1` [Example 24, (2R,3S,5R)-5-(6-amino-2-fluoro-9H-purin-9-yl)-2-ethynyl-2-(hydroxymethyl)tetrahydrofuran-3-yl cyclopropylcarbamate], the IC50 in experiment [1] (setting [3]) came to 1.48 µM; in experiment [2], 3740 nM.

On to `C#C[C@]1(CO)O[C@@H](n2cnc3c(NC(=O)OC(COC(=O)CCCC)COC(=O)CCCC)nc(F)nc32)C[C@@H]1O` [Example 32, 2-(((9-((2R,4S,5R)-5-ethynyl-4-hydroxy-5-(hydroxymethyl)tetrahydrofuran-2-yl)-2-fluoro-9H-purin-6-yl)carbamoyl)oxy)propane-1,3-diyl dipentanoate], for which the IC50 came to 0.0075 µM in experiment [1] (setting [3]) and 26.9 nM in experiment [2].

Consider `C#C[C@]1(COC(=O)OC(COC(=O)CCCCCCCC)COC(=O)CCCCCCCC)O[C@@H](n2cnc3c(N)nc(F)nc32)C[C@@H]1O` [Example 9, 2-(((((2R,3S,5R)-5-(6-amino-2-fluoro-9H-purin-9-yl)-2-ethynyl-3-hydroxytetrahydrofuran-2-yl)methoxy)carbonyl)oxy)propane-1,3-diyl dinonanoate], for which the results for the IC50 in experiment [1] (setting [3]) and in experiment [2] were 0.0049 µM and 22.1 nM, respectively.

Consider `C#C[C@]1(CO)O[C@@H](n2cnc3c(N)nc(F)nc32)C[C@@H]1OC(=O)N1CCC(C)CC1` [Example 22, (2R,3S,5R)-5-(6-amino-2-fluoro-9H-purin-9-yl)-2-ethynyl-2-(hydroxymethyl)tetrahydrofuran-3-yl 4-methylpiperidine-1-carboxylate], for which the IC50 in experiment [1] (setting [3]) is 11.7 µM; in experiment [2], more than 25000 nM.

On to `C#C[C@]1(CO)O[C@@H](n2cnc3c(N)nc(F)nc32)C[C@@H]1OC(=O)OC(COC(=O)CCCC)COC(=O)CCCC` [Example 29, 2-(((((2R,3S,5R)-5-(6-amino-2-fluoro-9H-purin-9-yl)-2-ethynyl-2-(hydroxymethyl)tetrahydrofuran-3-yl)oxy)carbonyl)oxy)propane-1,3-diyl dipentanoate], for which the IC50 was found to be 0.0077 µM in experiment [1] (setting [3]) and 28.3 nM in experiment [2].

As to `C#C[C@]1(COC(=O)OCc2ccc(OC(=O)CCCCCCCCCCCCC)cc2)O[C@@H](n2cnc3c(N)nc(F)nc32)C[C@@H]1O` [Example 13, 4-((((((2R,3S,5R)-5-(6-amino-2-fluoro-9H-purin-9-yl)-2-ethynyl-3-hydroxytetrahydrofuran-2-yl)methoxy)carbonyl)oxy)methyl)phenyl tetradecanoate], the IC50 in experiment [1] (setting [3]) turned out to be 0.0072 µM; in experiment [2] it was 17.8 nM.

For the compound `C#C[C@]1(CO)O[C@@H](n2cnc3c(N)nc(F)nc32)C[C@@H]1OC(=O)NC(C)(C)C` [Example 23, (2R,3S,5R)-5-(6-amino-2-fluoro-9H-purin-9-yl)-2-ethynyl-2-(hydroxymethyl)tetrahydrofuran-3-yl tert-butylcarbamate], the results for the IC50 in experiment [1] (setting [3]) and in experiment [2] were more than 25 µM and more than 25000 nM, respectively.

The record behind these values is patent US20220298160A1, “COMPOUNDS USEFUL IN HIV THERAPY” (priority 2019, published 2022).
